Data on 1 compound can be found in patent publication US20060183733A1, “Treating microvasculature diseases with acetyl cholinesterase inhibitors” (priority 2005, published 2006).

Common to all, as to type: in vivo, human
Data set [1] deals with patients with phantom pain. In words: Patient case histories: phantom pain following amputation. The following applies: donepizil 5 mg daily. From the text:
The present invention further provides a method of treating phantom pain following amputation in both upper and lower extremities. “Phantom pain” is a phenomenon described following amputation of either an upper or lower extremity. The sensation is common following amputation and present with varying degrees of discomfort and debility. A patient with phantom pain is typically treated with antidepressants, Neurontin® (gabapeninand) narcotics to a varying degree. The use of acetylcholinesterase inhibitors decreases the need for narcotics and generally eliminates the need for poly pharmacy improving pain, enhancing wound healing and improved sleep pattern in amputee patients. The dose of acetylcholinesterase inhibitor is titrated to GI (gastrointestinal) tolerance with bowel movement consistency and frequency the determining factors. Treatment with acetylcholinesterase inhibitor increases the available acetylcholine which is the neurotransmitter responsible for activation of the parasysmpathic nervous system appear responsible for Noxious symptoms of phantom pain for discomfort. The present invention provides a method of treating phantom pain associated with amputation of either upper or lower extremity.

For data set [2], the system named is patients with peripheral vascular disease and diabetes mellitus. In words: Patient case histories: microvascular disease / vascular insufficiency. The following applies: for side effects: donepizil 5-10 mg daily. From the text:
In summary, vascular insufficiency from diabetes is associated with compromise of the microvascular circulation. Treatment with an effective dose of an acetylcholinesterase inhibitor raises the relative concentration of acetylcholine promoting vasodilitation of the microcirculation (end arterioles) through stimulation of neuronal and non-neuronal acetylcholine receptors in the intima of the blood vessels. The beneficial effects of promoting vasodilitation and enhanced tissue perfusion correcting the dystrophic changes and alleviating ischemic pain and ulcers is readily apparent in this series of patients.
The present invention provides a method for the medical management of peripheral vascular disease. The management of peripheral vascular disease with acetylcholinesterase inhibitor addresses the central dilemma in vascular perfusion of the lower extremities. By increasing the relative concentration of acetylcholine, the parasympthetic nervous system is enhanced, improving blood flow at the tissue level by relaxation of the small end arterioles and improving perfusion therefore decreasing vascular edema, enhancing resolution of trohpic ulcers and alleviating rest pain and claudication complaints. The parasympathetic nervous system controls vascular beds in the small arterioles and by increasing the available acetylcholine, dilatation occurs and blood flow improves. By treatment with acetylcholinesterase inhibitors the end results in improved vascular blood supply, decreased congestion at the small arterioles level and improved blood supply. This is particularly necessary in diabetic patients. The presence of non-neuronal acetylcholine receptors with the intima of blood vessels at the microvascular level represents a second physiologic mechanism whereby dilatation of small blood vessels is facilitated by the use of an acetylcholinesterase inhibitor. This latter mechanism owing to the sensitive nature of the cholinesterases associated with the non neuronal acetylcholine system provides sustained cholinergic activity impacting the microvascular circulation and improving perfusion at the critical end arteriole-capillary-venule level.

For data set [3], the system named is patients with myofascial pain / fibromyalgia. Put plainly: Patient case histories: fibromyalgia / myofascial pain syndrome. The following applies: donepizil 5 mg daily. From the text:
The present invention provides a method for treating fibromyalgia and myofascial pain syndrome by increasing tissue levels of acetylcholine. Acetylcholine is the neurotransmitter of the parasympathic nervous system. The inventive method increases the relative amount of parasympathetic transmission and thereby facilitates resolution of the pain areas and diminishes the need for narcotics and polypharmacy. The reduction in the use of narcotics, NSAIDs, and tricyclic antidepressants and other medications used for pain having their deleterious side effects is a major benefit. By administration of acetyl cholinesterase inhibitor, the relative concentrations of acetylcholine are increased and available to propagate the impulses of the parasympathic nervous systems and within the non-neuronal acetylcholine receptors diminishing pain and spasms. […] The influence of non-neuronal acetylcholine receptors affected by enhanced levels of acetylcholine produces a reduction in pro-inflammatory mediators and increased blood flow to the nerve fibers involved in pain transmission. The net effect is a reduction in inflammation and improved blood flow to the vasovasorum of the affected nerves reducing the painful sensations.

Data set [4] concerns patients with diabetic polyneuropathy. The conditions noted are these: drug stopped after initial improvement. From the text:
The symptoms of motor and sensory loss of diabetic polyneuropathy are ameliorated by acetylcholinesterase inhibitions by increasing concentration of acetylcholine, the principle neurotransmitter of the parasympathetic nervous system. By augmenting the trophic input of nerves of parasympathic nervous system; pain and dyserethesia are diminished and weakness/atrophy of muscles are diminished. The clinical observation in non-Alzheimer's patients is an improvement in motor and sensory function following treatment with effective doses of an acetylcholinesterase inhibitor. Improved blood flow within the microvascular circulation supplying the vasovasorum of the nerves produces the beneficial effect. By restoring blood flow to the vasovasorum of the nerves ischemic pain is relieved and normal function of the nerve is allowed to occur. The process of vasodilatation of the microvascular circulation is mediated through both neuronal and non-neuronal acetylcholine receptors stimulation by acetylcholine. Enhancement in acetylcholine levels is effected through treatment with acetylcholinesterase inhibitors.
The physiologic shift favoring vasoconstriction that is associated with diabetes is reversed following administration of an acetylcholinesterase inhibitor allowing perfusion of the microvasculature, restoring blood flow to ischemic motor and sensory nerves damaged by the effects of diabetes.

For data set [5], the system named is patients with chronic renal insufficiency. Put plainly: Patient case histories: chronic renal insufficiency (serum creatinine, BUN). From the text:
To postpone or avoid the sequelae of chronic renal insufficiency, treatment with acetylcholinesterase inhibitors increase the concentration of acetycholine available to promote blood flow to the renal cortex preventing loss of nephrons and allowing existing renal parenchyma to provide the vital function of the kidney. Just as parasympathetic outflow provide homeostatic neural input to the elimination of function of the intestine, the same parasympathetic innervation provides vasodilatation of the small arterioles supplying the cortex of the kidneys allowing for optimal functioning.

The next data set concerns patients with lymphedema. The conditions noted are these: donepizil 5 mg orally daily. From the text:
The improvement in perfusion within the small arterioles decreases the hydrostatic pressure at the end arterioles and therefore reduces interstitial fluid accumulation that impedes the return of lymph fluid within the lymphatic vessels. The physics model for this phenomenon makes use of Bernouli's equation and its relationship to a Venturi tube. Hydrostatic pressure proximal to a relative stricture creates a pressure gradient that leads to increased transudation that overwhelms the capacity of the lymphatic system to manage. The vasodilatory effects of the parasympathetic nervous system upon small arterioles produces improved perfusion and lessens the accumulation of lymphedema. A common example of lymphedema occurs following joint replacement surgery with swelling that persists for three to six months and sometimes permanently. Lymphedema following joint replacement surgery slows recovery and creates pain while predisposing to deep vein thrombosis and infection.

Values joined by “and” are separate entries in the source; they are usually repeats but may differ in a detail not shown here. Identical values can stand only once. “Also recorded” adds a separate entry of the source.

As to `COc1cc2c(cc1OC)C(=O)C(CC1CCN(Cc3ccccc3)CC1)C2` (stereo not drawn) [donepizil, 1-benzyl-4->(5,6-dimethoxy-1-indanon)-2-yl methylpiperidine], the “clinical outcome (phantom pain, sleep)” value in data set [1] is “dramatic improvement in here phantom discomfort; also recorded: prompt improvement in their pain control; also recorded: phantom pain diminished to the point they no longer required Oxycotin®; also recorded: notable improvement in leg discomfort; also recorded: much improved phantom discomfort and improved sleep; also recorded: no symptoms of vascular insufficiency in their contralateral extremity”. Further, in data set [2] (donepizil 5 mg daily, 2 weeks to >1 year, single patients, listed as donepezil), the “clinical outcome (vascular edema, ulcers, pain, foot temperature)” value is given as “the heel ulcer completely resolved”. Further, the side effects entry is on record as “no diarrhea or ulcer symptoms; also recorded: No serious untoward side effects were noted; also recorded: able to tolerate this treatment for the next 6 months; also recorded: No deleterious side effects such a diarrhea or acid reflux were noted; also recorded: no diarrhea or symptoms of gastrointestinal reflux; also recorded: without any untoward side effects; also recorded: without deleterious side affects such a diarrhea or acid reflux; also recorded: absence of any adverse side effects” in data set [2]; “without nausea/vomiting or diarrhea symptoms” in data set [2] (listed as donepezil); “no reported GI upset or diarrhea; also recorded: well tolerated; also recorded: no nausea or diarrhea” in data set [3]; “no untoward side effects; also recorded: no evidence of metabolic acidosis or hyperkalemia; also recorded: no adverse side effects” in data set [5] (donepizil 5 mg orally daily); “suffered symptoms of diarrhea or nausea” in the data set with patients with lymphedema. For the same compound, the “clinical outcome (ulcers, edema, phantom discomfort)” value in data set [2] (donepizil increased to 10 mg daily, additional one month (a person)) was “near complete healing of the leg ulcers and complete resolution of their edema”. For the same compound, in data set [3], the “clinical outcome (pain, narcotic use)” value is reported as “able to eliminate their use of long acting; also recorded: decreased pain complaints in their neck; also recorded: controlled without the use of narcotics or NSAID's; also recorded: improvement in their back pain complaints; also recorded: pain complaints were significantly reduced over a four-week period; also recorded: no recurrence of their back pain or leg cramps; also recorded: no recurrence of cramps”. For the same compound, the “course after the drug was withdrawn or lapsed” value in data set [4] is “progressive decline in their ability and strength over the next 7-10 days”. For the same compound, the serum creatinine in data set [5] (donepizil 5 mg daily one month then 10 mg daily one month, before treatment 1.8) was 0.8; in data set [5] (donepizil 5 mg one week then 10 mg daily, two weeks of treatment, 5.5 on admission, on hemodialysis (Parkinson's patient)), 4.2; in data set [5] (donepizil 5 mg orally daily one month after switch from galantamine, 1.8 before any treatment), 1.0; in data set [5] (donepizil 5 mg orally daily, 4 weeks/one month, before treatment 1.7, 1.8, 1.4, 1.6, 1.7), 1.0 and 1.4 and 1.1 and 1.6 and 0.9; in data set [5] (donepizil 5 mg orally daily, about 6 weeks, before treatment b104 1.4, b106 1.8), 1.0 and 1.1; in data set [5] (donepizil 5 mg orally daily, three weeks, before treatment 2.8, on lisinopril) it was 1.4. Also, the serum creatinine in data set [5] (donepizil 5 mg orally daily, two to three months, before treatment 1.7, 1.8, 1.7) was 1.1 and 0.9 and 1.2; in data set [5] (donepizil 5 mg orally daily, up to two weeks, before treatment b100 1.6, b106 1.8), 1.3; in data set [5] (donepizil 10 mg daily continued for the next month, 5.5 on admission, hemodialysis discontinued), 2.1. The “BUN (blood urea nitrogen)” value in data set [5] (donepizil 5 mg orally daily one month after switch from galantamine, 32 before any treatment) is 14; in data set [5] (donepizil 5 mg orally daily, about 6 weeks, before treatment b104 37, b106 30), 21 and 19; in data set [5] (donepizil 5 mg orally daily, three weeks, before treatment 39), 26; in data set [5] (donepizil 5 mg orally daily, two to three months, before treatment b96 48, b110 35), 20 and 19; in data set [5] (donepizil 5 mg orally daily, two weeks, before treatment 30) it was 22.
